Test systems include HCT-15 colon; HT29 colon; SW-620 colon; OVCAR-5 ovarian; COLO 205 colon; SF-268 CNS; SR leukemia; TK-10 renal; U251 CNS; PC-3 prostate.
Holding throughout (test): NCI-60 cell line screen, 48 h

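Tested at 5 concentrations; 48 h exposure; 96-well plates; endpoints linearly interpolated, else capped at highest concentration. At the GI50, growth is halved. Definition used: TGI = concentration required for complete inhibition of growth.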 Bounds are passed on as bounds.

The values that follow come from PubChem BioAssay (NCI).

On to `C[C@H](O)CCC(=O)c1ccoc1`, for which the TGI in the test on HCT-15 colon, in the test on HT29 colon, with SW-620 colon, in the test with OVCAR-5 ovarian, in the test on COLO 205 colon and in the test with SF-268 CNS was more than 100 µM in each case. In addition, the TGI in the test on SR leukemia, with TK-10 renal and in the test with U251 CNS was more than 100 µM each time.

In the case of `C/C(=N\NC(N)=S)c1ccc(Oc2ccccc2)cc1`, the TGI is 22.5 µM in the test with HCT-15 colon; 53.9 µM in the test with SW-620 colon; 25.7 µM in the test with COLO 205 colon; 21.8 µM in the test with TK-10 renal; 31.3 µM in the test with U251 CNS.

On to `Cc1c(Cl)ccc2[s+]snc12`, for which the TGI was more than 100 µM in the test on HCT-15 colon; more than 100 µM in the test on HT29 colon; 52.2 µM with SW-620 colon; more than 100 µM in the test with OVCAR-5 ovarian; more than 100 µM in the test with COLO 205 colon; 62.8 µM in the test on SF-268 CNS. In addition, the TGI is more than 100 µM with SR leukemia, more than 100 µM in the test with TK-10 renal and 70.2 µM in the test with U251 CNS.

For the compound `CC(=O)[O-].O=C([CH-]C(=O)c1ccccc1)c1ccccc1.O=C([CH-]C(=O)c1ccccc1)c1ccccc1.[Dy+3]`, the GI50 with HT29 colon was 11.3 µM; in the test with SW-620 colon, 7.27 µM; in the test with OVCAR-5 ovarian, 34.9 µM; in the test with COLO 205 colon, 15.3 µM; in the test with SF-268 CNS, 10.4 µM; in the test on TK-10 renal it was 27.4 µM. In addition, the GI50 in the test on U251 CNS was 11.9 µM. Further, the TGI was 26.2 µM in the test with HT29 colon; more than 100 µM in the test on SW-620 colon; more than 100 µM with OVCAR-5 ovarian; 34.1 µM in the test on COLO 205 colon; 56.4 µM in the test on SF-268 CNS; 86.5 µM in the test with TK-10 renal. The compound further came in with a TGI with U251 CNS of more than 100 µM.

Turning to `CC[C@H]1CNC(=O)CC1CC(=O)OC` (stereo partly drawn), the TGI in the test with HCT-15 colon, in the test on HT29 colon, in the test on SW-620 colon, with OVCAR-5 ovarian, with SF-268 CNS and with SR leukemia was more than 100 µM each time. Moreover, the TGI with TK-10 renal and in the test with U251 CNS was more than 100 µM throughout.

Regarding `COc1cc(Br)c(C2OCCCO2)cc1OCc1ccccc1`, the TGI in the test on HCT-15 colon, in the test with HT29 colon, in the test on SW-620 colon, with OVCAR-5 ovarian, in the test with COLO 205 colon and in the test on SF-268 CNS was more than 100 µM in each case. For the same compound, the TGI in the test with TK-10 renal and in the test on U251 CNS was more than 100 µM each time.

With `CCn1c(O)c(C(=O)Nc2cccs2)c(=O)n(CC)c1=S`, the TGI was 41.7 µM with HCT-15 colon; 31.9 µM with HT29 colon; 56.2 µM in the test with SW-620 colon; 61.5 µM in the test on OVCAR-5 ovarian; 32.2 µM in the test on COLO 205 colon; 44.4 µM in the test with SF-268 CNS. The TGI with SR leukemia is more than 100 µM; in the test on TK-10 renal it was 69.3 µM; in the test with U251 CNS it was 25.9 µM.

Consider `CC1(C)OC2OC(/C=C/[N+](=O)[O-])C3OC(C)(C)OC3C2O1` (stereo not drawn), for which the TGI in the test with HCT-15 colon was 5.43 µM; in the test with HT29 colon, 40.1 µM; in the test on SW-620 colon it was 9.46 µM; in the test with OVCAR-5 ovarian, 38.1 µM; in the test on COLO 205 colon it was 14.5 µM; in the test on SF-268 CNS, 39.5 µM. For the same compound, the results for the TGI in the test with SR leukemia, in the test on TK-10 renal and in the test with U251 CNS were 33.6 µM, 9.56 µM and 32.7 µM, respectively.

As for `O=C1N(c2ccccc2)C2(O)C(=O)c3ccccc3C2(O)N1c1ccccc1` (stereo not drawn), the TGI in the test with HCT-15 colon, in the test with HT29 colon, with SW-620 colon, with OVCAR-5 ovarian, in the test with COLO 205 colon and in the test with SF-268 CNS was more than 100 µM in each case. The TGI in the test with SR leukemia, with TK-10 renal and with U251 CNS was more than 100 µM each time.

As to `Cc1nn(-c2ccccc2)c2c1[C@@H](C)[C@H]1CC3(CC4(C)C[C@@H]3C1(C)c1c(C)nn(-c3ccccc3)c1N4C)N2C` (stereo partly drawn), the GI50 is 0.591 µM in the test with PC-3 prostate, more than 100 µM in the test on OVCAR-5 ovarian, more than 100 µM in the test with SF-268 CNS and more than 100 µM in the test on TK-10 renal. Also, the TGI in the test on PC-3 prostate, with OVCAR-5 ovarian, in the test with SF-268 CNS and in the test on TK-10 renal was more than 100 µM in each case.

Consider `COc1ccc2c(c1)c(-c1nc(-c3cn(C)c4ncccc34)cs1)cn2CCCCN1CCCCC1`, for which the GI50 was 1.45 µM in the test with HCT-15 colon; 1.59 µM with HT29 colon; 1.62 µM in the test on SW-620 colon; 1.61 µM in the test with PC-3 prostate; 1.65 µM in the test on OVCAR-5 ovarian; 1.53 µM in the test with TK-10 renal. Moreover, the TGI with HCT-15 colon was 2.8 µM; in the test on HT29 colon it was 3.03 µM; in the test on SW-620 colon, 2.99 µM; with PC-3 prostate it was 3 µM; in the test with OVCAR-5 ovarian, 3.08 µM; in the test with TK-10 renal, 2.95 µM.

On to `N#CC1(C2CC(=O)N(c3ccccc3)C2=O)CCCCC1=O` (stereo not drawn), for which the TGI in the test with HCT-15 colon, in the test with HT29 colon, in the test with SW-620 colon, in the test with OVCAR-5 ovarian, in the test on COLO 205 colon and in the test with SF-268 CNS was more than 100 µM each time. For the same compound, the TGI in the test with SR leukemia, with TK-10 renal and in the test with U251 CNS was more than 100 µM in each case.

On to `COc1cc(CC2c3cc(OC)c(OC)cc3CCN2C)c(C(=O)O)cc1OC` (stereo not drawn), for which the TGI in the test on HT29 colon, in the test on SW-620 colon, with OVCAR-5 ovarian, in the test on COLO 205 colon, with SF-268 CNS and in the test with SR leukemia was more than 100 µM throughout. In addition, the TGI in the test with TK-10 renal and with U251 CNS was more than 100 µM throughout.

Regarding `CCOc1ccc(/C=C/C(=O)c2sc(NNC(C)=O)nc2C)cc1`, the TGI in the test with HCT-15 colon, in the test on HT29 colon, in the test on SW-620 colon, in the test on OVCAR-5 ovarian, in the test with COLO 205 colon and with SF-268 CNS was more than 100 µM each time. In addition, the TGI with TK-10 renal and in the test with U251 CNS was more than 100 µM in each case.

As to `O=C1C(=C2C(=O)c3ccccc3[N+]2=O)N([O-])c2ccccc21`, the TGI with HT29 colon is 94.1 µM; with SW-620 colon, 47.5 µM; in the test on OVCAR-5 ovarian, more than 100 µM; in the test on COLO 205 colon it was 33 µM; with SF-268 CNS, 88.5 µM; in the test with SR leukemia, 79.4 µM. Besides, the TGI with TK-10 renal is 81.1 µM; in the test on U251 CNS, 53.9 µM.
